Laboratory results as given in patent US20210213120A1, “KRAS PEPTIDE VACCINE COMPOSITIONS AND METHOD OF USE” (THE MEDICAL COLLEGE OF WISCONSIN , INC., priority 2017, published 2021).
No end group written: not given here.

Legend:
[1] = tested on: tumor infiltrated CD8+ cells and Tregs; assay: T cells in spleen or tumor of K-rasLA1 mice; type: in vivo, mouse; conditions: 4~5 weeks after treatment
Description: FIG. 8. UAB30 increased tumor infiltrated CD8+ cells and decreased Tregs in tumor. K-rasLA1 mice were treated with control, Kras-vaccine, UAB30 alone or Kras-vaccine and UAB30 and the % CD4+ or CD8+ T cells were assessed in the spleen or tumor of mice at 4˜5 weeks after treatment.
K-rasLA1 mouse develops premalignant lung lesions that progress to multifocal lung adenocarcinomas due to somatic mutations in K-ras, which occurs at the birth of these mice through DNA recombination. […] In this model, vaccination was given when mice were 8˜10 weeks old, at which numerous pleural lesions already formed in lung, yet K-ras vaccination alone significant inhibited lung tumor multiplicity and load in K-rasLA1 mice, decreased tumor numbers from ˜12 to ˜7 per mouse, and tumor load from ˜55 mm3 to ˜30 mm3 (FIG. 7).

[2] = tested on: K-ras-driven lung cancer syngraft; assay: K-ras-driven lung cancer syngraft tumor model (avasimibe combination); type: in vivo, mouse; conditions: tumor volume over time
Description: FIG. 10. K-ras vaccine synergize with Avasamibe to inhibit lung tumor progression in K-ras-driven lung cancer syngraft tumor model.
Mice were treated with the combination of K-ras multi-peptide vaccine with avasimibe in a K-ras-driven lung cancer syngraft model. Tumor volume was assessed over time post tumor cell inoculation.
Therefore, we tested the combination of K-ras multi-peptide vaccine with avasimibe in a K-ras-driven lung cancer syngraft model.

[3] = Immune response to KRAS peptides (Table 1)
IFN-γ response = assay: IFN-γ ELISPOT of PD-1 and PD-L1 peptides in naïve mice; type: in vivo, mouse
Description: The immunogenicity of PD-1 and PD-L1 were tested in naïve mice using the IFN-γ ELISPOT assay. (P<0.0001, data not shown)
Cancer cells are naturally attacked by cells of the immune system, but can induce a state of tolerance whereby they escape from immune attack, for which immune checkpoint proteins such as PD1, VISTA are important ones mediating this immune escape. Interaction of PD-1 on activated T cells and PD-L1 on cancer cells lead to inhibition of the cytotoxic T cells. Investigators have recently identified spontaneous T cell reactivity against PD-L1 in the tumor microenvironment and in the peripheral blood of patients with metastatic melanoma and healthy donors, PD-L1 reactive CD8 T cells are cytotoxic and can kill cancer cells and immune regulatory cells in vitro, and responsive PD-L1 peptide vaccine has therefore under development. Here, by using a multi-scoring system that combines multiple MHC class II peptide binding algorithms, we identified immunogenic “hotspots”, and selected 7 peptides for PD-L1 and 11 peptides for PD-1 from these immunogenic “hot” regions (see Table 3). We then tested their immunogenicity in naïve mice using the IFN-γ ELISPOT assay.

[4] = tested on: IFN-γ-secreting splenocytes; assay: IFN-γ ELISPOT screen of single KRAS peptides in naïve mice; type: in vivo, mouse; conditions: for IFN-γ response (ELISPOT): naïve mice vaccinated with single KRAS peptide; for IFN-γ response (ELISPOT) / mean IFN-γ-secreting cells: splenocytes pulsed 72 h
Excerpt: FIG. 1A-1C. In vivo screen for peptide candidates by ELISPOT in naïve mice. (A) Immunogenic heatmap for identifying peptides associated with highest binding affinity across multiple MHC class II alleles. Colors represent percentile to highest score from three algorithms for each amino acid from dark red to light blue in the order of rank scores. Color strata are as follows: dark red ≥75% of the highest score; red=50˜75% of the highest score; orange=40˜50% of highest score; yellow=30˜40% of the highest score; green=20˜30% of the highest score; blue ≤20% of the highest score. (B) Representative ELISPOT results showing T cell responses to specific KRAS peptides from mouse splenocytes stimulated with no antigen (first row), negative control peptide (HIV peptide, second row), target peptide (third row), or positive control ConA (fourth row). (C) Quantified ELISPOT results. Then, splenocytes were collected and pulsed with no antigen control, each single KRAS peptide, or negative control peptide (HIV peptide), or positive control ConA. After 72 h of incubation, the ELISPOT assay was performed, plates were scanned, and spot numbers were statistically analyzed. Open bar, ELISPOT reads from KRAS peptide vaccinated animals pulsed with specific KRAS peptide; blue bar, ELISPOT reads from animals injected only with adjuvant and pulsed with specific KRAS peptide; black bar, ELISPOT reads from three most significant KRAS peptide vaccinated animals. Data are shown as the mean±SE of three replicate wells per group, n=5.
Mice were vaccinated with 50 μg of each peptide. Phosphate buffered saline (PBS) was added to bring the total volume to 50 μL/mouse. An equal amount of adjuvant (Complete Freund's Adjuvant or Incomplete Freund's Adjuvant) was added to bring the total volume to 100 μL/mouse. Mice were injected subcutaneously on the shoulder at 7 weeks of age, and boosting vaccination was given every two weeks for the first three boosting and every 4 weeks for the last three boosting as shown in FIG. 2A. Transgene Kras was initiated with Dox diet (625 mg/kg diet) one week after the fourth vaccination, and Dox diet was given throughout of the study.
(§1) Cell suspensions from whole spleens were filtered through a 70 μm cell strainer (BD) and subjected to red blood cell lysis using ACK lysis buffer. 1.5˜3.0×10^4 cells were plated into individual wells of a MAIPS4510 Multiscreen 96 well plate previously coated with anti-interferon γ […] antibody and containing media with either peptide, positive control (concanavalin A) or negative control (HIV peptide, or no antigen). After 72 hours, plates were washed and a secondary antibody (BD) was added and incubated on the plate overnight at 4 degrees Celsius. Wells were then washed with PBS and HRP streptavidin was added. Following 1 h incubation, the plate was developed using AEC substrate for between 5-25 minutes. The plate was subsequently gently washed under cold running tap water. When dry, an automated plate reader system (CTL Technologies) was used to image the plates and quantify spot number.
Using a multi-scoring system that combines multiple MHC class II peptide binding algorithms, immunogenic “hotspots” were identified; 11 peptides (Table 2) were selected; their immunogenicity was evaluated in naïve mice using the IFN-γ ELISPOT assay as previously reported. The KRAS 17-mer peptide (p5-21) that covers the mutation in codon 12, and its G12D mutant (p5-21 G12D) were also selected as robust peptides to stimulate immune response. […] To include peptides against both wild-type and mutant KRAS, also based on a high degree of homology between human and mouse KRAS, peptides p5-21 (SEQ ID NO:2), p5-21 G12D (SEQ ID NO:1), p17-31 (SEQ ID NO:4), and p78-92 (SEQ ID NO:6) were chosen to formulate a multipeptide KRAS vaccine in the preventive efficacy study.

[5] = tested on: IFN-γ-secreting splenocytes; assay: IFN-γ ELISPOT of splenocytes from vaccinated CCSP-KRAS^G12D mice at end of study (epitope spreading); type: in vivo, mouse; conditions: for mean IFN-γ-secreting cell responses: splenocytes of mice vaccinated with KRAS combination vaccine, pulsed with the named peptide(s) 72 h
Description: FIG. 3. Epitope spreading tested by IFN-γ ELISPOT. Mice were vaccinated with the KRAS combination vaccine (p5-21, p5-21 G12D, p17-31, and p78-92). Then splenocytes were collected and pulsed with KRAS combo peptides, each single KRAS peptide, unvaccinated KRAS peptide p75-89, combo IGFR peptides, or Tert peptide. After 72 h of incubation, the ELISPOT assay was performed, plates were scanned, and spot numbers were statistically analyzed.
as §1
In order to examine the specific immunity that confers the protective effect of the KRAS vaccine, an IFN-γELISPOT assay of splenocytes isolated from adjuvant alone and vaccinated CCSP-KRAS^G12D mice was performed at the end of the study. […] The mean IFN-γ-secreting cell responses were 216 in the pooled KRAS peptides group, and 36, 40, 116, and 52 to individual peptides p5-21, p5-21 G12D, p17-31, and p78-92, respectively. […] There was no evidence of general immune hyperactivity stimulation as none of the animals responded to an irrelevant naïve antigen, further supporting the notion that the immune response detected in the vaccinated group was highly specific to the KRAS vaccine.

## CC(=C/C=C/C(C)=C/C(=O)O)/C=C1\CCCc2ccccc21 [UAB30]
[1]
  Tregs in tumors: decreased
  infiltrated CD8+ cells in tumors: significantly increased

## CC(C)c1cc(C(C)C)c(CC(=O)NS(=O)(=O)Oc2c(C(C)C)cccc2C(C)C)c(C(C)C)c1 [avasimibe]
[2]
  tumor growth inhibition: effective in inhibiting tumor growth

## AGGVGKSALTIQLLQNHFVDE [p11s]
[3]
  Immune response: Yes

## AGGVGKSALTIQLLQNHFVDEYD [p11]
[3]
  Immune response: Yes

## CHLLRAFTITAPKDL [mPDL1-13]
IFN-γ response
  IFN-γ response, peptides against PD-L1: strongest IFN-γ response

## DAFYTLVREIRKHKE [p154-168]
[4]
  IFN-γ response (ELISPOT): much weaker response

## FLCVFAINNTKSFED [p78-92]
[3]
  Immune response: Yes
[5]
  mean IFN-γ-secreting cell responses: 52
[4]
  IFN-γ response (ELISPOT): strongest IFN-γ response

## FYTLVREIRKHKEKM [p156-170]
[3]
  Immune response: Yes
[4]
  IFN-γ response (ELISPOT): strongest IFN-γ response

## GEGFLCVFAINNTKS [p75-89]
[5]; splenocytes of vaccinated animals
  IFN-γ response to non-vaccine KRAS peptide: strong response
[4]
  IFN-γ response (ELISPOT): much weaker response

## KLVVVGADGVGKSALTI [p5-21 G12D]
[3]
  Immune response: Yes
[5]
  mean IFN-γ-secreting cell responses: 40
[4]; naïve mice
  mean IFN-γ-secreting cells: around 100 spots per well (SPW)

## KLVVVGAGGVGKSAL [p5-19]
[4]; IFN-γ ELISPOT, naïve mice
  response relative to p5-21: less than 50%

## KLVVVGAGGVGKSALTI [p5-21]
[3]
  Immune response: Yes
[5]
  mean IFN-γ-secreting cell responses: 36
[4]
  IFN-γ response (ELISPOT): strongest IFN-γ response
[4]; naïve mice
  mean IFN-γ-secreting cells: around 100 spots per well (SPW)

## KLVVVGAVGVGKSALTI [P5-21G12V]
[3]
  Immune response: Yes

## LAVFCSTSMSEARGA [mPD1-193]
IFN-γ response
  IFN-γ response, peptides for PD-1: strongest IFN-γ response

## LPATHPPQNRTHWVL [mPDL1228]
IFN-γ response
  IFN-γ response, peptides against PD-L1: strongest IFN-γ response
  IFN-γ response, peptides for PD-1: strongest IFN-γ response

## PQHSNFRGRASLPKD [mPDL1-76]
IFN-γ response
  IFN-γ response, peptides against PD-L1: strongest IFN-γ response

## QDARFQIIQLPNRHD [mPD1-94]
IFN-γ response
  IFN-γ response, peptides for PD-1: strongest IFN-γ response

## SALTIQLIQNHFVDE [p17-31]
[3]
  Immune response: Yes
[5]
  mean IFN-γ-secreting cell responses: 116
[4]
  IFN-γ response (ELISPOT): strongest IFN-γ response

## SWQSGWLLEVPNGPW [mPD1-21]
IFN-γ response
  IFN-γ response, peptides for PD-1: strongest IFN-γ response

## TgegFLCVFAINNTKSFED (TGEGFLCVFAINNTKSFED) [P75]
[3]
  Immune response: Yes

## VGAGGVGKSALTIQLLQNHFVDEYD [p9]
[3]
  Immune response: Yes

## kSALTIQLIQNHFVDEyd (KSALTIQLIQNHFVDEYD; not fully specified (residues 1, 17, 18); printed as kSALTIQLIQNHFVDEyd) [P16]
[3]
  Immune response: Yes
